SMILES strings stand for the structures.

The source of these data is patent publication US12471596B2 (priority 2019, dated 2025).

This assay has as its system Phytophthora infestans. Kind of assay: microbe, parasite or virus in culture. It is filed as cell-based. The conditions noted are these: in Secale cereale, 168 h, read-out: control compared to the untreated check.
Take `COc1cncnc1OCC(=O)N1CCC(c2nc(C3=NOC(c4c(F)cccc4F)C3)cs2)CC1` (stereo not drawn) [Compound 76, 1-(4-(4-(5-(2,6-difluorophenyl)-4,5-dihydroisoxazol-3-yl)thiazol-2-yl)piperidin-1-yl)-2-((5-methoxypyrimidin-4-yl)oxy)ethan-1-one]: the inhibition of growth at 30 ppm is ≥ 70%.
In the case of `COc1ccnc(OCC(=O)N2CCC(c3nc(C4=NOC(c5c(O)cccc5Cl)C4)cs3)CC2)n1` (stereo not drawn) [Compound 83, 1-(4-(4-(5-(2-chloro-6-hydroxyphenyl)-4,5-dihydroisoxazol-3-yl)thiazol-2-yl)piperidin-1-yl)-2-((4-methoxypyrimidin-2-yl)oxy)ethan-1-one] it was ≥ 70%; in that of `CSc1nccnc1OCC(=O)N1CCC(c2nc(C3=NOC(c4c(F)cccc4Br)C3)cs2)CC1` (stereo not drawn) [Compound 141, 1-(4-(4-(5-(2-bromo-6-fluorophenyl)-4,5-dihydroisoxazol-3-yl)thiazol-2-yl)piperidin-1-yl)-2-((3-(methylthio)pyrazin-2-yl)oxy)ethan-1-one], ≥ 70%; in that of `COc1cncc(OCC(=O)N2CCC(c3nc(C4=NOC(c5c(Cl)ccc(F)c5F)C4)cs3)CC2)n1` (stereo not drawn) [Compound 104, 1-(4-(4-(5-(6-chloro-2,3-difluorophenyl)-4,5-dihydroisoxazol-3-yl)thiazol-2-yl)piperidin-1-yl)-2-((6-methoxypyrazin-2-yl)oxy)ethan-1-one], ≥ 70%.
In the case of `COc1cncnc1OCC(=O)N1CCC(c2nc(C3=NOC(c4c(Cl)cccc4OS(C)(=O)=O)C3)cs2)CC1` (stereo not drawn) [Compound 72, 3-chloro-2-(3-(2-(1-(2-((5-methoxypyrimidin-4-yl)oxy)acetyl)piperidin-4-yl)thiazol-4-yl)-4,5-dihydroisoxazol-5-yl)phenyl methanesulfonate], the inhibition of growth at 30 ppm was ≥ 70%.
Turning to `COc1cncnc1OCC(=O)N1CCC(c2nc(C3=NOC(c4c(O)cccc4Cl)C3)cs2)CC1` (stereo not drawn) [Compound 79, 1-(4-(4-(5-(2-chloro-6-hydroxyphenyl)-4,5-dihydroisoxazol-3-yl)thiazol-2-yl)piperidin-1-yl)-2-((5-methoxypyrimidin-4-yl)oxy)ethan-1-one], the inhibition of growth at 30 ppm was ≥ 70%.
For `O=C(COc1nccnc1Cl)N1CCC(c2nc(C3=NOC(c4c(Cl)ccc(F)c4F)C3)cs2)CC1` (stereo not drawn) [Compound 111, 1-(4-(4-(5-(6-chloro-2,3-difluorophenyl)-4,5-dihydroisoxazol-3-yl)thiazol-2-yl)piperidin-1-yl)-2-((3-chloropyrazin-2-yl)oxy)ethan-1-one] the value was ≥ 70%; for `COc1ccnc(OCC(=O)N2CCC(c3nc(C4=NOC(c5c(Cl)cccc5C(F)(F)F)C4)cs3)CC2)n1` (stereo not drawn) [Compound 82, 1-(4-(4-(5-(2-chloro-6-(trifluoromethyl)phenyl)-4,5-dihydroisoxazol-3-yl)thiazol-2-yl)piperidin-1-yl)-2-((4-methoxypyrimidin-2-yl)oxy)ethan-1-one], ≥ 70%.
As to `CSc1nccnc1OCC(=O)N1CCC(c2nc(C3=NOC(c4c(Cl)cccc4C(F)(F)F)C3)cs2)CC1` (stereo not drawn) [Compound 143, 1-(4-(4-(5-(2-chloro-6-(trifluoromethyl)phenyl)-4,5-dihydroisoxazol-3-yl)thiazol-2-yl)piperidin-1-yl)-2-((3-(methylthio)pyrazin-2-yl)oxy)ethan-1-one], the inhibition of growth at 30 ppm is ≥ 70%.
Regarding `COc1ncc(OCC(=O)N2CCC(c3nc(C4=NOC(c5c(F)cccc5Br)C4)cs3)CC2)cn1` (stereo not drawn) [Compound 134, 1-(4-(4-(5-(2-bromo-6-fluorophenyl)-4,5-dihydroisoxazol-3-yl)thiazol-2-yl)piperidin-1-yl)-2-((2-methoxypyrimidin-5-yl)oxy)ethan-1-one], the inhibition of growth at 30 ppm is ≥ 70%.
In the case of `CSc1nccnc1OCC(=O)N1CCC(c2nc(C3=NOC(c4c(Cl)cccc4Br)C3)cs2)CC1` (stereo not drawn) [Compound 158, 1-(4-(4-(5-(2-bromo-6-chlorophenyl)-4,5-dihydroisoxazol-3-yl)thiazol-2-yl)piperidin-1-yl)-2-((3-(methylthio)pyrazin-2-yl)oxy)ethan-1-one] it was ≥ 70%; in that of `O=C(COc1cncc(C(F)(F)F)n1)N1CCC(c2nc(C3=NOC(c4c(F)cccc4Cl)C3)cs2)CC1` (stereo not drawn) [Compound 53, 1-(4-(4-(5-(2-chloro-6-fluorophenyl)-4,5-dihydroisoxazol-3-yl)thiazol-2-yl)piperidin-1-yl)-2-((6-(trifluoromethyl)pyrazin-2-yl)oxy)ethan-1-one], ≥ 70%; in that of `COc1cncnc1OCC(=O)N1CCC(c2nc(C3=NOC(c4c(F)cccc4Cl)C3)cs2)CC1` (stereo not drawn) [Compound 74, 1-(4-(4-(5-(2-chloro-6-fluorophenyl)-4,5-dihydroisoxazol-3-yl)thiazol-2-yl)piperidin-1-yl)-2-((5-methoxypyrimidin-4-yl)oxy)ethan-1-one], ≥ 70%.
In the case of `O=C(COc1cc(C(F)(F)F)ncn1)N1CCC(c2nc(C3=NOC(c4c(Cl)cccc4C(F)(F)F)C3)cs2)CC1` (stereo not drawn) [Compound 10, 1-(4-(4-(5-(2-chloro-6-(trifluoromethyl)phenyl)-4,5-dihydroisoxazol-3-yl)thiazol-2-yl)piperidin-1-yl)-2-((6-(trifluoromethyl)pyrimidin-4-yl)oxy)ethan-1-one], the inhibition of growth at 30 ppm is ≥ 70%.
Turning to `CS(=O)(=O)Oc1cccc(Cl)c1C1CC(c2csc(C3CCN(C(=O)COc4nccc(C(F)(F)F)n4)CC3)n2)=NO1` (stereo not drawn) [Compound 46, 3-chloro-2-(3-(2-(1-(2-((4-(trifluoromethyl)pyrimidin-2-yl)oxy)acetyl)piperidin-4-yl)thiazol-4-yl)-4,5-dihydroisoxazol-5-yl)phenyl methanesulfonate], the inhibition of growth at 30 ppm is ≥ 70%.
Turning to `N#Cc1cccc(Cl)c1C1CC(c2csc(C3CCN(C(=O)COc4nccc(C(F)(F)F)n4)CC3)n2)=NO1` (stereo not drawn) [Compound 45, 3-chloro-2-(3-(2-(1-(2-((4-(trifluoromethyl)pyrimidin-2-yl)oxy)acetyl)piperidin-4-yl)thiazol-4-yl)-4,5-dihydroisoxazol-5-yl)benzonitrile], the inhibition of growth at 30 ppm was ≥ 70%.
In the case of `CSc1nccnc1OCC(=O)N1CCC(c2nc(C3=NOC(c4cc(Cl)ccc4Cl)C3)cs2)CC1` (stereo not drawn) [Compound 149, 1-(4-(4-(5-(2,5-dichlorophenyl)-4,5-dihydroisoxazol-3-yl)thiazol-2-yl)piperidin-1-yl)-2-((3-(methylthio)pyrazin-2-yl)oxy)ethan-1-one] it was ≥ 70%; in that of `COc1cncnc1OCC(=O)N1CCC(c2nc(C3=NOC(c4cc(Cl)ccc4Cl)C3)cs2)CC1` (stereo not drawn) [Compound 77, 1-(4-(4-(5-(2,5-dichlorophenyl)-4,5-dihydroisoxazol-3-yl)thiazol-2-yl)piperidin-1-yl)-2-((5-methoxypyrimidin-4-yl)oxy)ethan-1-one], ≥ 70%; in that of `COc1nccnc1OCC(=O)N1CCC(c2nc(C3=NOC(c4c(Cl)cc(Cl)cc4Cl)C3)cs2)CC1` (stereo not drawn) [Compound 24, 2-((3-methoxypyrazin-2-yl)oxy)-1-(4-(4-(5-(2,4,6-trichlorophenyl)-4,5-dihydroisoxazol-3-yl)thiazol-2-yl)piperidin-1-yl)ethan-1-one], ≥ 70%.
In the case of `O=C(COc1cc(C(F)(F)F)ncn1)N1CCC(c2nc(C3=NOC(c4c(F)cccc4F)C3)cs2)CC1` (stereo not drawn) [Compound 12, 1-(4-(4-(5-(2,6-difluorophenyl)-4,5-dihydroisoxazol-3-yl)thiazol-2-yl)piperidin-1-yl)-2-((6-(trifluoromethyl)pyrimidin-4-yl)oxy)ethan-1-one] it was ≥ 70%; in that of `COc1cncc(OCC(=O)N2CCC(c3nc(C4=NOC(c5c(Cl)cccc5C#N)C4)cs3)CC2)n1` (stereo not drawn) [Compound 100, 3-chloro-2-(3-(2-(1-(2-((6-methoxypyrazin-2-yl)oxy)acetyl)piperidin-4-yl)thiazol-4-yl)-4,5-dihydroisoxazol-5-yl)benzonitrile], ≥ 70%; in that of `COc1ncc(OCC(=O)N2CCC(c3nc(C4=NOC(c5c(Cl)cccc5OS(C)(=O)=O)C4)cs3)CC2)cn1` (stereo not drawn) [Compound 130, 3-chloro-2-(3-(2-(1-(2-((2-methoxypyrimidin-5-yl)oxy)acetyl)piperidin-4-yl)thiazol-4-yl)-4,5-dihydroisoxazol-5-yl)phenyl methanesulfonate], ≥ 70%.
`O=C(COc1ccnc(C(F)(F)F)n1)N1CCC(c2nc(C3=NOC(c4c(F)cccc4Cl)C3)cs2)CC1` (stereo not drawn) [Compound 20, 1-(4-(4-(5-(2-chloro-6-fluorophenyl)-4,5-dihydroisoxazol-3-yl)thiazol-2-yl)piperidin-1-yl)-2-((2-(trifluoromethyl)pyrimidin-4-yl)oxy)ethan-1-one]: the inhibition of growth at 30 ppm is ≥ 70%.
Regarding `COc1cncc(OCC(=O)N2CCC(c3nc(C4=NOC(c5c(Cl)cccc5OS(C)(=O)=O)C4)cs3)CC2)n1` (stereo not drawn) [Compound 103, 3-chloro-2-(3-(2-(1-(2-((6-methoxypyrazin-2-yl)oxy)acetyl)piperidin-4-yl)thiazol-4-yl)-4,5-dihydroisoxazol-5-yl)phenyl methanesulfonate], the inhibition of growth at 30 ppm is ≥ 70%.
`COc1ncc(OCC(=O)N2CCC(c3nc(C4=NOC(c5c(F)cccc5F)C4)cs3)CC2)cn1` (stereo not drawn) [Compound 139, 1-(4-(4-(5-(2,6-difluorophenyl)-4,5-dihydroisoxazol-3-yl)thiazol-2-yl)piperidin-1-yl)-2-((2-methoxypyrimidin-5-yl)oxy)ethan-1-one]: the inhibition of growth at 30 ppm was ≥ 70%.
For `CS(=O)(=O)c1nccnc1OCC(=O)N1CCC(c2nc(C3=NOC(c4c(F)cccc4Br)C3)cs2)CC1` (stereo not drawn) [Compound 159, 1-(4-(4-(5-(2-bromo-6-fluorophenyl)-4,5-dihydroisoxazol-3-yl)thiazol-2-yl)piperidin-1-yl)-2-((3-(methylsulfonyl)pyrazin-2-yl)oxy)ethan-1-one] the value was ≥ 70%; for `O=C(COc1nccc(C(F)(F)F)n1)N1CCC(c2nc(C3=NOC(c4c(Cl)cccc4C(F)(F)F)C3)cs2)CC1` (stereo not drawn) [Compound 84, 1-(4-(4-(5-(2-chloro-6-(trifluoromethyl)phenyl)-4,5-dihydroisoxazol-3-yl)thiazol-2-yl)piperidin-1-yl)-2-((4-(trifluoromethyl)pyrimidin-2-yl)oxy)ethan-1-one], ≥ 70%.
